Test results reported in article PMC7562955 (Nature Communications, 2020).

Molecular target: T1, TLR7 extracellular domain (Macaca mulatta, UniProt B3Y653, N167Q/N389Q/N488Q/N799Q)
T1 construct: Monkey (Macaca mulatta) TLR7 extracellular domain expression construct; protein A tag (C, cleaved yes); made in house; host or cells: Drosophila S2 cells
T1 sequence (B3Y653 with tags, fused parts or gaps N167Q/N389Q): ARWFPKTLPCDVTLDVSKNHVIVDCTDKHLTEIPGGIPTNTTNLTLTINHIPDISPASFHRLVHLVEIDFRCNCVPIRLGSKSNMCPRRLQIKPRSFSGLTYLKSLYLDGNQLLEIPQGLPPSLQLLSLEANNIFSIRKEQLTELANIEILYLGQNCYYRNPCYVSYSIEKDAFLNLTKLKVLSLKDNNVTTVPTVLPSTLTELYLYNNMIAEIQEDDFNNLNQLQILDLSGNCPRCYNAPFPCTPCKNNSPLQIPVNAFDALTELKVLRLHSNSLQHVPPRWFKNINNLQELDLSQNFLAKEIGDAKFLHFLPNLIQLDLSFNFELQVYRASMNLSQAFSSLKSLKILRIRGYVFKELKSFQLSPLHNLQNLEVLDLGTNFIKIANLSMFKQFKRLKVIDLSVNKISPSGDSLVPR
T1 sequence (B3Y653 with tags, fused parts or gaps N488Q/N799Q): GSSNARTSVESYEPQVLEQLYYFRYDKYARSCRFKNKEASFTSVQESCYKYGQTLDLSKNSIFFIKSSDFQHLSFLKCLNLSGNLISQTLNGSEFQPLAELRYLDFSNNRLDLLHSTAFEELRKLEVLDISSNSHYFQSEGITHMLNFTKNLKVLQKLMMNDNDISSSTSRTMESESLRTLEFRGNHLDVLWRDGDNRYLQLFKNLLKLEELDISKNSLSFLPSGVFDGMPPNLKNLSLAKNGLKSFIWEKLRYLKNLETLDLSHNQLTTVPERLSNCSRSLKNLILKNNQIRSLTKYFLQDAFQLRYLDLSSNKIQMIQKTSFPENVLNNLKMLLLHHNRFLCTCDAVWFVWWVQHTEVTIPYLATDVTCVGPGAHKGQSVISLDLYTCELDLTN
Test: ITC titration to TLR7 recombinant protein
Assay type: binding, Monkey (Macaca mulatta)
Details: pH 4.7; read-out: Dissociation constant KD
Experimental: The recombinant TLR7 proteins expressed in Drosophila S2 cells (Thermo Fisher Scientific) using Monkey (Macaca mulatta) TLR7 extracellular domain expression construct with N167Q, N399Q, N488Q and N799Q mutations and cleavable Z-loop and C-terminal protein A tag were prepared and were stored in a buffer containing 10 mM Tris-HCl pH 7.5 and 150 mM NaCl at concentrations of 10–15 mg ml^−1. Briefly, the purification steps included IgG affinity purification, the Z-loop and the protein A tag cleavage, and gel-filtration chromatography. Glycan-trimmed TLR7 proteins, expressed in the presence of 1.5 mg l^−1 kifunensine (Glycosyn) and treated by Endo Hf (New England Biolabs) were used for crystallization. Glycan-untrimmed proteins were used in ITC analysis, crosslinking assay, negative-staining EM and cryo-EM (200 kV microscopes) analyses. Glycan-trimmed TLR7 proteins with partially-uncleaved protein A tag were used for cryo-EM analysis using Tatan Krios (Supplementary Fig. 11).
ITC experiments (Fig. 2a) were conducted at 298 K in a final buffer condition of ~30 mM citrate-NaOH pH 4.7 or pH 5.7 (Hampton Research), 150 mM NaCl by using a MicroCal iTC200 (Malvern Panalytical). […]

CCOc1nc(C)c2nc(-c3cncc(F)c3)n(Cc3ccc(CN4C[C@@H]5C[C@H]4CN5C)cc3)c2n1 [Cpd-7] gave a Kd of 7.4 µM.

CCOc1nc(N)c2nc(-c3cncc(F)c3)n(Cc3ccc(CN4C[C@@H]5C[C@H]4CN5C)cc3)c2n1 [Cpd-6] showed a Kd of 10 µM.
